Data as given in patent US9073895B2 (Boehringer Ingelheim International GmbH, priority 2010, dated 2015).

Columns and labels:
[1] = system: synthesis of LTB4 in human whole blood; assay: Human whole blood LTB4 production inhibition assay; format: cell-based; settings: heparinized human whole blood, calcimycin 20 μM, plasma LTB4; read-out: HuWB IC50
Description: Compounds are additionally tested in a human whole blood assay to determine their ability to inhibit the synthesis of LTB4 in a cellular system. Compounds are combined with heparinized human whole blood and incubated for 15 minutes at 37° C. Calcimycin (20 μM final, prepared in phosphate-buffered saline, pH 7.4) is then added and the mixture is incubated for another 30 minutes at 37° C. The samples are centrifuged for 5 min at low speed (1500×g) and the plasma layer is removed. Plasma LTB4 concentrations are then measured using an antibody-based homogenous time-resolved fluorescence method (CisBio, Bedford, Mass.).

[2] = biological target: T1, recombinant human FLAP protein (Homo sapiens, UniProt P20292); assay: FLAP binding assay (SPA, displacement of [125I]L-691,831); settings: membranes of sf9 cells expressing human FLAP, [125I]L-691,831 probe; read-out: hFLAP binding IC50
T1 construct: made in house; host or cells: Sf9 insect cells (membrane fraction, 100,000 x g pellet)
T1 sequence (P20292 1-161): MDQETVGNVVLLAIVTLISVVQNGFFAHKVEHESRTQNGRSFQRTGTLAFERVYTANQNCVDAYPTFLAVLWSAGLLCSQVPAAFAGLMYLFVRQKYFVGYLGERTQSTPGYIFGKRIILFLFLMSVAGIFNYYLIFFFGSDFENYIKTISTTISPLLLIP
Outline: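 Membranes from sf9 cells expressing human FLAP (5 μg/well) were bound to WGA SPA beads (200 μg/well). Nonspecific binding was defined with 10 μM unlabelled L-691,831.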

Compound	IC50 [1]	IC50 [2]
Cc1nc(NC(=O)C2(c3ccc(-c4cnc(N)nc4)cc3)CCOCC2)ccc1C#N [Example 52, 4-[4-(2-aminopyrimidin-5-yl)phenyl]-N-(5-cyano-6-methylpyridin-2-yl)tetrahydro-2H-pyran-4-carboxamide]	1810 nM	63.5 nM
Nc1ncc(-c2ccc(C3(C(=O)Nc4ccc(Cc5ccccc5)cc4)CCOCC3)cc2)cn1 [Example 54, 4-[4-(2-aminopyrimidin-5-yl)phenyl]-N-(4-benzylphenyl)tetrahydro-2H-pyran-4-carboxamide]	1120 nM	44.5 nM
Nc1ncc(-c2ccc(C3(C(=O)Nc4nc5ccccc5s4)CCOCC3)cc2)cn1 [Example 55, 4-[4-(2-aminopyrimidin-5-yl)phenyl]-N-(1,3-benzothiazol-2-yl)tetrahydro-2H-pyran-4-carboxamide]	> 3000 nM	29 nM
Nc1ncc(-c2ccc(C3(C(=O)Nc4cc(-c5ccncc5)no4)CCOCC3)cc2)cn1 [Example 58, 4-[4-(2-aminopyrimidin-5-yl)phenyl]-N-[3-(pyridin-4-yl)-1,2-oxazol-5-yl]tetrahydro-2H-pyran-4-carboxamide]	> 3000 nM	170 nM
Nc1ncc(-c2ccc(C3(C(=O)Nc4nc(-c5ccccn5)cs4)CCOCC3)cc2)cn1 [Example 59, 4-[4-(2-aminopyrimidin-5-yl)phenyl]-N-[4-(pyridin-2-yl)-1,3-thiazol-2-yl]tetrahydro-2H-pyran-4-carboxamide]	> 3000 nM	12.7 nM
Nc1ncc(-c2ccc(C3(C(=O)Nc4nc(-c5ccncc5)cs4)CCOCC3)cc2)cn1 [Example 60, 4-[4-(2-aminopyrimidin-5-yl)phenyl]-N-[4-(pyridin-4-yl)-1,3-thiazol-2-yl]tetrahydro-2H-pyran-4-carboxamide]	310 nM	3.5 nM
Nc1ncc(-c2ccc(C3(C(=O)Nc4cccc(OCc5ccccc5)c4)CCOCC3)cc2)cn1 [Example 61, 4-[4-(2-aminopyrimidin-5-yl)phenyl]-N-[3-(benzyloxy)phenyl]tetrahydro-2H-pyran-4-carboxamide]	> 3000 nM	94 nM
Cc1ccc(NC(=O)C2(c3ccc(-c4cnc(N)nc4)cc3)CCOCC2)cc1C#N [Example 62, 4-[4-(2-aminopyrimidin-5-yl)phenyl]-N-(3-cyano-4-methylphenyl)tetrahydro-2H-pyran-4-carboxamide]	> 3000 nM	33.5 nM
Nc1ncc(-c2ccc(C3(C(=O)Nc4ccc(Oc5ccc(Cl)cc5)cc4)CCOCC3)cc2)cn1 [Example 63, 4-[4-(2-aminopyrimidin-5-yl)phenyl]-N-[4-(4-chlorophenoxy)phenyl]tetrahydro-2H-pyran-4-carboxamide]	812 nM	30.5 nM
Nc1ncc(-c2ccc(C3(C(=O)Nc4ccc(S(=O)(=O)N5CCOCC5)cc4)CCOCC3)cc2)cn1 [Example 64, 4-[4-(2-aminopyrimidin-5-yl)phenyl]-N-[4-(morpholin-4-ylsulfonyl)phenyl]tetrahydro-2H-pyran-4-carboxamide]	850 nM	48 nM
Nc1ncc(-c2ccc(C3(C(=O)Nc4cnc(-c5ccccc5)nc4)CCOCC3)cc2)cn1 [Example 65, 4-[4-(2-aminopyrimidin-5-yl)phenyl]-N-(2-phenylpyrimidin-5-yl)tetrahydro-2H-pyran-4-carboxamide]	905 nM	14 nM
Nc1ncc(-c2ccc(C3(C(=O)Nc4ccc(Cl)c(F)c4)CCOCC3)cc2)cn1 [Example 66, 4-[4-(2-aminopyrimidin-5-yl)phenyl]-N-(4-chloro-3-fluorophenyl)tetrahydro-2H-pyran-4-carboxamide]	1780 nM	11.9 nM
Nc1ncc(-c2ccc(C3(C(=O)Nc4ccc(-c5ccccc5)nc4)CCOCC3)cc2)cn1 [Example 67, 4-[4-(2-aminopyrimidin-5-yl)phenyl]-N-(6-phenylpyridin-3-yl)tetrahydro-2H-pyran-4-carboxamide]	1210 nM	14.5 nM
CC(C)n1ncc2cc(NC(=O)C3(c4ccc(-c5cnc(N)nc5)cc4)CCOCC3)cnc21 [Example 68, 4-[4-(2-aminopyrimidin-5-yl)phenyl]-N-[1-(propan-2-yl)-1H-pyrazolo[3,4-b]pyridin-5-yl)tetrahydro-2H-pyran-4-carboxamide]	1210 nM	68.5 nM
Cc1nc(-c2cccc(NC(=O)C3(c4ccc(-c5cnc(N)nc5)cc4)CCOCC3)c2)cs1 [Example 70, 4-[4-(2-aminopyrimidin-5-yl)phenyl]-N-[3-(2-methyl-1,3-thiazol-4-yl)phenyl]tetrahydro-2H-pyran-4-carboxamide]	> 3000 nM	42 nM
Nc1ncc(-c2ccc(C3(C(=O)Nc4ccc5c(c4)C(=O)OC5)CCOCC3)cc2)cn1 [Example 71, 4-[4-(2-aminopyrimidin-5-yl)phenyl]-N-(3-oxo-1,3-dihydro-2-benzofuran-5-yl)tetrahydro-2H-pyran-4-carboxamide]	> 3000 nM	190 nM
Nc1ncc(-c2ccc(C3(C(=O)Nc4ccc(N5CCOCC5)c(Cl)c4)CCOCC3)cc2)cn1 [Example 72, 4-[4-(2-aminopyrimidin-5-yl)phenyl]-N-[3-chloro-4-(mopholin-4-yl)phenyl]tetrahydro-2H-pyran-4-carboxamide]	244 nM	28.3 nM
COC(=O)c1sc(-c2ccc(Cl)cc2)cc1NC(=O)C1(c2ccc(-c3cnc(N)nc3)cc2)CCOCC1 [Example 73, methyl 3-[({4-[4-(2-aminopyrimidin-5-yl)phenyl]tetrahydro-2H-pyran-4-yl}carbonyl)amino]-5-(4-chlorophenyl)thiophene-2-carboxylate]	1500 nM	53.5 nM
CC(C)(C)c1cccc(NC(=O)C2(c3ccc(-c4cnc(N)nc4)cc3)CCOCC2)c1 [Example 74, 4-[4-(2-aminopyrimidin-5-yl)phenyl]-N-(3-tert-butylphenyl)tetrahydro-2H-pyran-4-carboxamide]	> 3000 nM	97 nM
Cc1nc2cc(NC(=O)C3(c4ccc(-c5cnc(N)nc5)cc4)CCOCC3)ccc2s1 [Example 75, 4-[4-(2-aminopyrimidin-5-yl)phenyl]-N-(2-methyl-1,3-benzothiazol-5-yl)tetrahydro-2H-pyran-4-carboxamide]	> 3000 nM	68 nM
COc1ccc(Oc2ccccc2)cc1NC(=O)C1(c2ccc(-c3cnc(N)nc3)cc2)CCOCC1 [Example 76, 4-[4-(2-aminopyrimidin-5-yl)phenyl]-N-(2-methoxy-5-phenoxyphenyl)tetrahydro-2H-pyran-4-carboxamide]	> 3000 nM	52.5 nM
CCN(CC)S(=O)(=O)c1cccc(NC(=O)C2(c3ccc(-c4cnc(N)nc4)cc3)CCOCC2)c1 [Example 78, 4-[4-(2-aminopyrimidin-5-yl)phenyl]-N-[3-(diethylsulfamoyl)phenyl] tetrahydro-2H-pyran-4-carboxamide]	> 3000 nM	113 nM
N#Cc1ccnc(NC(=O)C2(c3ccc(-c4cnc(N)nc4)cc3)CCOCC2)c1 [Example 79, 4-[4-(2-aminopyrimidin-5-yl)phenyl]-N-(4-cyanopyridin-2-yl)tetrahydro-2H-pyran-4-carboxamide]	> 3000 nM	53.5 nM
COC(=O)c1cccc(NC(=O)C2(c3ccc(-c4cnc(N)nc4)cc3)CCOCC2)c1 [Example 80, methyl 3-[({4-[4-(2-aminopyrimidin-5-yl)phenyl]tetrahydro-2H-pyran-4-yl}carbonyl)amino]benzoate]	> 3000 nM	60 nM
Nc1ncc(-c2ccc(C3(C(=O)Nc4cc(C(F)(F)F)ccc4N4CCOCC4)CCOCC3)cc2)cn1 [Example 81, 4-[4-(2-aminopyrimidin-5-yl)phenyl]-N-[2-(morpholin-4-yl)-5-(trifluoromethyl)phenyl] tetrahydro-2H-pyran-4-carboxamide]	> 3000 nM	54 nM
Nc1ncc(-c2ccc(C3(C(=O)Nc4cc5ccccc5cn4)CCOCC3)cc2)cn1 [Example 82, 4-[4-(2-aminopyrimidin-5-yl)phenyl]-N-(isoquinolin-3-yl)tetrahydro-2H-pyran-4-carboxamide]	2780 nM	10.5 nM
Nc1ncc(-c2ccc(C3(C(=O)Nc4ccc(C(F)(F)F)c(F)c4)CCOCC3)cc2)cn1 [Example 83, 4-[4-(2-aminopyrimidin-5-yl)phenyl]-N-[3-fluoro-4-(trifluoromethyl)phenyl] tetrahydro-2H-pyran-4-carboxamide]	1060 nM	14.5 nM
Nc1ncc(-c2ccc(C3(C(=O)Nc4ccc(OCc5ccccc5)cc4)CCOCC3)cc2)cn1 [Example 85, 4-[4-(2-aminopyrimidin-5-yl)phenyl]-N-[4-(benzyloxy)phenyl]tetrahydro-2H-pyran-4-carboxamide]	849 nM	12.5 nM
Cc1ccc2cc(NC(=O)C3(c4ccc(-c5cnc(N)nc5)cc4)CCOCC3)ccc2n1 [Example 86, 4-[4-(2-aminopyrimidin-5-yl)phenyl]-N-(2-methylquinolin-6-yl)tetrahydro-2H-pyran-4-carboxamide]	412 nM	18.7 nM
CN(C)S(=O)(=O)c1ccc(NC(=O)C2(c3ccc(-c4cnc(N)nc4)cc3)CCC2)cc1 [Example 87, 1-[4-(2-aminopyrimidin-5-yl)phenyl]-N-[4-(dimethylsulfamoyl)phenyl] cyclobutanecarboxamide]	192 nM	4 nM
